PubChem BioAssay AID2060885 (Molecular Pharmacology Branch, DTP, NCI, 2025)

Tested on: NCI-H23 complex spheroids with HUVEC/MSC, viability
Assay: Anticancer human tumor NCI-H23 cell line growth inhibition [RAS];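 on viability, T/C: 100% = DMSO vehicle control viability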
Conditions: for IC50: curve of first compound; for viability, T/C: stronger effect = lower value
Text: RAS pathway inhibitors in Combinations in Complex Spheroids
A high-throughput screen of multi-cell type tumor spheroids was designed to identify active combinations of RAS pathway inhibitors and targeted small molecules. Complex spheroids include a stromal component modeled by human endothelial cells (HUVEC) and fibroblasts modeled by human mesenchymal stem cells (MSCs). The concentration ranges selected for each drug and investigational agent were based upon clinically achievable concentrations if the clinical Cmax of the agent was known.
Compounds. The drugs and investigational agents: abemaciclib (NSC768073), cobimetinib (NSC768068), divarasib (GDC6063, NSC841802), docetaxel (NSC628503), GDC-1971 (RLY-1971, NSC841576), gemcitabine (NSC613327), inavolisib (NSC800729), ipatasertib (NSC767898), KB-0742 (NSC834161), MRTX-1133 (NSC836407), osimertinib (NSC779217), RMC-4630 (NSC839698), RMC-6236 (NSC851965), RMC-6291 (NSC852671), Ro-3306 (NSC812927), sapanisertib (NSC764658), SN-38 (NSC673596), staurosporine (NSC755774), SY5609 (NSC837396), and tovorafenib (DAY101, NSC766906), were obtained from the National Cancer Institute (NCI) Developmental Therapeutics Program Chemical Repository. The FDA-approved anticancer drug set is available from the NCI Developmental Therapeutics Program. […] The stock solutions were prepared in dimethyl sulfoxide (DMSO, Sigma-Aldrich, St. Louis, MO, cat. D2650) at 800-fold the tested concentration and stored at -70 degrees C prior to their use. All drugs and investigational agents were tested over a range starting from a high concentration at or near the clinical Cmax and decreasing in half-log increments. If the clinical Cmax for an agent had not been determined, the highest concentration tested was 10 microM.
Cell Culture. All cells were maintained in an incubator at 37 degrees C and 5% CO2 with 95% humidity. The PDC lines were cultured according to standard operating procedures established by the NCI PDMR. All PDCs were thawed and cultured in Matrigel-coated flasks prepared with a working solution of 1X Ham's F-12 nutrient mix, without supplementation (Invitrogen, Waltham, MA, cat. 11765054), 100 U/mL penicillin-streptomycin (Invitrogen, cat. 15140122), and 2.5% Matrigel (Corning Inc., Corning, NY, cat. 354248) for the first three passages. The 362531-283-R-J2-PDC and 782815-120-R-J1-PDC lines were cultured in 6C/Colon 1B media, which includes advanced DMEM/F-12 (Thermo Fisher Scientific, cat. 12634028), 10 mM HEPES (Thermo Fisher Scientific, cat. 15630080), 1X GlutaMAX supplement (Thermo Fisher Scientific, cat. 35050061), 0.1 mg/mL primocin (InvivoGen, San Diego, CA, cat. ant-pm-2), 10% defined fetal bovine serum, heat inactivated (HyClone Laboratories Inc., Logan, UT, cat. SH30070.03HI), 50% L-WRN conditioned media (ATCC, cat. CRL-3276), 1.25 mM N-Acetyl-L-cysteine (Sigma-Aldrich, cat. A9165), 10 mM nicotinamide (Sigma-Aldrich, cat. N0636), 1X B-27 supplement (Thermo Fisher Scientific, cat. 17504044), 1X N-2 supplement (Thermo Fisher Scientific, cat. 17502048), 50 ng/mL human EGF (Thermo Fisher Scientific, cat. PHG0311), and 10 microM Y-27632 dihydrochloride (Tocris Bioscience, cat. 1254). The K12877-001-R-J1-PDC line was cultured in 6I media, which includes all 6C/Colon 1B media plus 10 ng/mL human FGF-10 (PeproTech, cat. 100-26), 1 ng/mL human FGF-2 (PeproTech, cat. 100-18B), 1 µM prostaglandin E2 (Tocris Bioscience, cat. 2296), […] hydrocortisone (Sigma-Aldrich, cat. H4001), and […] bovine insulin (Sigma-Aldrich, cat. I6634). The K86415-001-R-J1-PDC line was cultured in 6D media, which includes all 6C/Colon 1B media components minus the L-WRN conditioned media. The 485176-168-R4-J1-PDC was cultured in PANC media, which includes all 6C/Colon 1B media plus 100 ng/mL human FGF-10 (PeproTech, cat. 100-26), 500 nM SB-431542 (Selleckchem, cat. S1067), and 10 nM gastrin (Tocris Bioscience, cat. 3006). […]

[1] = second compound 0.0316 µM, first compound 0.0316 µM
[2] = second compound 0.0316 µM, first compound 0.1 µM
[3] = second compound 0.1 µM, first compound 0.0316 µM
[4] = second compound 0.1 µM, first compound 0.1 µM
[5] = second compound 0.316 µM, first compound 0.0316 µM
[6] = second compound 0.316 µM, first compound 0.1 µM
[7] = second compound 1 µM, first compound 0.0316 µM
[8] = second compound 1 µM, first compound 0.1 µM
[9] = second compound 3.16 µM, first compound 0.0316 µM
[10] = second compound 3.16 µM, first compound 0.1 µM
[11] = second compound 10 µM, first compound 0.0316 µM
[12] = second compound 10 µM, first compound 0.1 µM

CC(C)n1nc(-c2ccc3oc(N)nc3c2)c2c(N)ncnc21 + C#Cc1c(F)ccc2cc(O)cc(-c3ncc4c(N5CC6CCC(C5)N6)nc(OCC56CCCN5CC(F)C6)nc4c3F)c12
IC50 (second compound 0.0316 µM): 53.9 nM | IC50 (second compound 0.1 µM): 43.2 nM | IC50 (second compound 0.316 µM): 22.2 nM | IC50 (second compound 1 µM): 14.8 nM | IC50 (second compound 3.16 µM): 2.86 nM | IC50 (second compound 10 µM): < 0.316 nM | viability, T/C (second compound 0.0316 µM, first compound 0.000316 µM): 105% | viability, T/C (second compound 0.0316 µM, first compound 0.001 µM): 114% | viability, T/C (second compound 0.0316 µM, first compound 0.00316 µM): 89.6% | viability, T/C (second compound 0.0316 µM, first compound 0.01 µM): 73.9% | viability, T/C [1]: 51.4% | viability, T/C [2]: 47.1% | viability, T/C (second compound 0.1 µM, first compound 0.000316 µM): 108% | viability, T/C (second compound 0.1 µM, first compound 0.001 µM): 113% | viability, T/C (second compound 0.1 µM, first compound 0.00316 µM): 84.7% | viability, T/C (second compound 0.1 µM, first compound 0.01 µM): 71.4% | viability, T/C [3]: 53.2% | viability, T/C [4]: 42.8% | viability, T/C (second compound 0.316 µM, first compound 0.000316 µM): 104% | viability, T/C (second compound 0.316 µM, first compound 0.001 µM): 106% | viability, T/C (second compound 0.316 µM, first compound 0.00316 µM): 83.7% | viability, T/C (second compound 0.316 µM, first compound 0.01 µM): 61.6% | viability, T/C [5]: 46.1% | viability, T/C [6]: 39.4% | viability, T/C (second compound 1 µM, first compound 0.000316 µM): 83.6% | viability, T/C (second compound 1 µM, first compound 0.001 µM): 93.1% | viability, T/C (second compound 1 µM, first compound 0.00316 µM): 72.8% | viability, T/C (second compound 1 µM, first compound 0.01 µM): 56.4% | viability, T/C [7]: 39.6% | viability, T/C [8]: 32.3% | viability, T/C (second compound 3.16 µM, first compound 0.000316 µM): 56.4% | viability, T/C (second compound 3.16 µM, first compound 0.001 µM): 60.4% | viability, T/C (second compound 3.16 µM, first compound 0.00316 µM): 48.4% | viability, T/C (second compound 3.16 µM, first compound 0.01 µM): 38.3% | viability, T/C [9]: 36.8% | viability, T/C [10]: 22.9% | viability, T/C (second compound 10 µM, first compound 0.000316 µM): 38.8% | viability, T/C (second compound 10 µM, first compound 0.001 µM): 38.6% | viability, T/C (second compound 10 µM, first compound 0.00316 µM): 28.8% | viability, T/C (second compound 10 µM, first compound 0.01 µM): 26.9% | viability, T/C [11]: 24.1% | viability, T/C [12]: 17%

C[C@@H](NC(=O)c1ncnc(N)c1Cl)c1ncc(C(=O)Nc2cc(C(F)(F)F)c(Cl)cn2)s1 + C#Cc1c(F)ccc2cc(O)cc(-c3ncc4c(N5CC6CCC(C5)N6)nc(OCC56CCCN5CC(F)C6)nc4c3F)c12
IC50 (second compound 0.0316 µM): > 10000 nM | IC50 (second compound 0.1 µM): > 10000 nM | IC50 (second compound 0.316 µM): > 10000 nM | IC50 (second compound 1 µM): > 10000 nM | IC50 (second compound 3.16 µM): > 10000 nM | IC50 (second compound 10 µM): < 31.6 nM | viability, T/C [1]: 110% | viability, T/C [2]: 112% | viability, T/C (second compound 0.0316 µM, first compound 0.316 µM): 98.9% | viability, T/C (second compound 0.0316 µM, first compound 1 µM): 99.9% | viability, T/C (second compound 0.0316 µM, first compound 3.16 µM): 92.3% | viability, T/C (second compound 0.0316 µM, first compound 10 µM): 66.5% | viability, T/C [3]: 103% | viability, T/C [4]: 110% | viability, T/C (second compound 0.1 µM, first compound 0.316 µM): 105% | viability, T/C (second compound 0.1 µM, first compound 1 µM): 99.5% | viability, T/C (second compound 0.1 µM, first compound 3.16 µM): 91.8% | viability, T/C (second compound 0.1 µM, first compound 10 µM): 66.2% | viability, T/C [5]: 104% | viability, T/C [6]: 110% | viability, T/C (second compound 0.316 µM, first compound 0.316 µM): 106% | viability, T/C (second compound 0.316 µM, first compound 1 µM): 99.4% | viability, T/C (second compound 0.316 µM, first compound 3.16 µM): 85.6% | viability, T/C (second compound 0.316 µM, first compound 10 µM): 74.4% | viability, T/C [7]: 90.3% | viability, T/C [8]: 96.2% | viability, T/C (second compound 1 µM, first compound 0.316 µM): 93.1% | viability, T/C (second compound 1 µM, first compound 1 µM): 86.1% | viability, T/C (second compound 1 µM, first compound 3.16 µM): 83.3% | viability, T/C (second compound 1 µM, first compound 10 µM): 60.7% | viability, T/C [9]: 67.2% | viability, T/C [10]: 69.3% | viability, T/C (second compound 3.16 µM, first compound 0.316 µM): 60.8% | viability, T/C (second compound 3.16 µM, first compound 1 µM): 56.9% | viability, T/C (second compound 3.16 µM, first compound 3.16 µM): 53.6% | viability, T/C (second compound 3.16 µM, first compound 10 µM): 52.5% | viability, T/C [11]: 38.7% | viability, T/C [12]: 49.5% | viability, T/C (second compound 10 µM, first compound 0.316 µM): 46.3% | viability, T/C (second compound 10 µM, first compound 1 µM): 41.1% | viability, T/C (second compound 10 µM, first compound 3.16 µM): 48.1% | viability, T/C (second compound 10 µM, first compound 10 µM): 38.3%
